# Assay results from US6890920B2, “Quaternary ammonium compounds” (Pharmacia & Upjohn Company, priority 1992, dated 2005).
# Like-named read-outs stand apart in the source and are kept apart here.
# Key:
# [1] = target: T1, muscarinic receptor M1 (Homo sapiens, UniProt P11229); test: Muscarinic receptor subtype M1 binding assay, radioligand displacement
# T1 construct: expressed in transfected cells
# T1 sequence (P11229 1-460): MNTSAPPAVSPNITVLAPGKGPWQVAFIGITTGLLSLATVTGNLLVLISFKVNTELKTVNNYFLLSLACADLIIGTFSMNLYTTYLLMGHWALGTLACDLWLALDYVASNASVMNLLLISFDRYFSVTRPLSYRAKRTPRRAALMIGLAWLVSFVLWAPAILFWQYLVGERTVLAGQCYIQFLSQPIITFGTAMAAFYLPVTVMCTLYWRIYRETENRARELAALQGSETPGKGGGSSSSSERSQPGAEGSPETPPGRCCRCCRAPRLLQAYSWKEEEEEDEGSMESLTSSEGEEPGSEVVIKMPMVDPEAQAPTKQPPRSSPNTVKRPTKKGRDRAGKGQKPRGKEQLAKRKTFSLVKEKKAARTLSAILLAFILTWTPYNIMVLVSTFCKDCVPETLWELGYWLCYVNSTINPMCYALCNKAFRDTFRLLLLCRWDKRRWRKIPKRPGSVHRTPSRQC
# Experimental: (§1) Muscarinic receptor subtype M1-M5 binding assays were carried out. Briefly, [3]H-methylscopolamine was allowed to bind to membranes from various recombinant mammalian cell lines, each with an over-expression of a particular receptor subtype.
# (§2) Muscarinic receptor subtype M1-M5 binding assays were performed.
# [2] = target: T2, muscarinic receptor M2 (Homo sapiens, UniProt P08172); test: Muscarinic receptor subtype M2 binding assay, radioligand displacement
# T2 construct: expressed in transfected cells
# T2 sequence (P08172 1-466): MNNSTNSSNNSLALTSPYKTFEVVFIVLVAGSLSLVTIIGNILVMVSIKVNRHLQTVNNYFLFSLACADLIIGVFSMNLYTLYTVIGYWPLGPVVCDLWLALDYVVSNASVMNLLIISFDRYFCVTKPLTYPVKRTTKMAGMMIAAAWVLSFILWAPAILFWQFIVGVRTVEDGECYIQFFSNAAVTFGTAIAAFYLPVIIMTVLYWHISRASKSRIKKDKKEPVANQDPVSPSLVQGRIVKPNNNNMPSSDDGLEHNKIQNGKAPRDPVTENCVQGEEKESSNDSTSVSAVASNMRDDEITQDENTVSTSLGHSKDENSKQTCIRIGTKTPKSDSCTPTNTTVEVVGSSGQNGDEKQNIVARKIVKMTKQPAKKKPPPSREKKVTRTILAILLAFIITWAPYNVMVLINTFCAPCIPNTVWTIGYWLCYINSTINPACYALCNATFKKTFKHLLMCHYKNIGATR
# Experimental: as §1, §2
# [3] = target: T3, muscarinic receptor M3 (Homo sapiens, UniProt P20309); test: Muscarinic receptor subtype M3 binding assay, radioligand displacement; conditions: Ki values, receptor subtype M3
# T3 construct: expressed in transfected cells
# Experimental: as §1, §2
# [4] = target: T4, muscarinic receptor M4 (Homo sapiens, UniProt P08173); test: Muscarinic receptor subtype M4 binding assay, radioligand displacement
# T4 construct: expressed in transfected cells
# T4 sequence (P08173 1-479): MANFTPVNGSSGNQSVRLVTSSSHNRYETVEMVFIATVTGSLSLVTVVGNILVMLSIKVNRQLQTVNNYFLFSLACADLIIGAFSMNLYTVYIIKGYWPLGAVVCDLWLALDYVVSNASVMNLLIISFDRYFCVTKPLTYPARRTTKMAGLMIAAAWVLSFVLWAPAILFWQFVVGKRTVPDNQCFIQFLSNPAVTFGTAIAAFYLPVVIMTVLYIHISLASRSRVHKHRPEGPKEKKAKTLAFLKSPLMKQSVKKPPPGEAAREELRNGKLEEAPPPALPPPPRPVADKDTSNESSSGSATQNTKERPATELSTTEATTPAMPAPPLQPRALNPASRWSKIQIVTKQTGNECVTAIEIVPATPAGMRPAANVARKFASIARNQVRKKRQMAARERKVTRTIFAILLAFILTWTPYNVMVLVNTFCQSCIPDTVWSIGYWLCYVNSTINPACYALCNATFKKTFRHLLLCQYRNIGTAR
# Experimental: as §1, §2
# [5] = target: T5, muscarinic receptor M5 (Homo sapiens, UniProt P08912); test: Muscarinic receptor subtype M5 binding assay, radioligand displacement; conditions: Ki values, receptor subtype M5, [3]H-methylscopolamine displacement, membranes from recombinant mammalian cell lines
# T5 construct: expressed in transfected cells
# T5 sequence (P08912 1-532): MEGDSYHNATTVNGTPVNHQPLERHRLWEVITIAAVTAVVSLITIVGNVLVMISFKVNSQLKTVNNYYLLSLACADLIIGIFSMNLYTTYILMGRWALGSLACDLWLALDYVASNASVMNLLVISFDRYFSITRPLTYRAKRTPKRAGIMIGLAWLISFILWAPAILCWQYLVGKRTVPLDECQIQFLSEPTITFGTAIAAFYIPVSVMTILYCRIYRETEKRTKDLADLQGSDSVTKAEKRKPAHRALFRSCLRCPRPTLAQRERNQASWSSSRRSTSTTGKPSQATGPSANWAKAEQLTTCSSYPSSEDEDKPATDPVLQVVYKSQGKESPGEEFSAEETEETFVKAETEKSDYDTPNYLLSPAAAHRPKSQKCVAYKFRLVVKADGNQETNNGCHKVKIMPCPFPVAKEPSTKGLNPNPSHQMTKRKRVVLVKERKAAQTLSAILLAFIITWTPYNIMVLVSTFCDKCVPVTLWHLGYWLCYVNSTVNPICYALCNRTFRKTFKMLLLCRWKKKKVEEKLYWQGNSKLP
# Experimental: as §1, §2
# [6] = Pharmacokinetics of inhaled quaternary ammonium salts, plasma levels; type: in vivo, Balb/c mice
# Experimental: Blood samples were taken from the mice in example II via cardiac puncture under isoflurane anesthesia at 2.5 minutes, 10 minutes, 30 minutes, 2 hours, 4 hours, 8 hours, or 12 hours after aerosol drug treatment.
# The samples were collected in tubes containing EDTA and centrifuged at 12000×g for four minutes. Plasma was removed and stored at −70° C. until assay.
# Plasma samples were extracted via a liquid/liquid extraction technique. […] Chromatographically, the analyte and the internal standard were resolved on a Phenomenex Phenyl-Hexyl column using an isocratic elution. The limit of quantitation was 24 pg/ml.
# [7] = test system: methacholine-induced bronchoconstriction in Balb/c mice; test: Bronchodilatory effect of inhaled compounds, Example II (10 min to 48 h)
# Experimental: Female BALB/c mice, weight range 19-22 g, were obtained from Charles River Laboratories (Kingston, N.C.). They received food and water ad libitum.
# Compounds for aerosol administration were prepared in sterile Dulbecco's Phosphate Buffered Saline.
# Mice were placed in a carousel-style, nose only, exposure chamber and allowed to inhale aerosols for five minutes, using an ICN SPAG-2 nebulizer.
# Bronchoconstriction was induced in mice by administration of an 80 mg/ml methacholine (MC) aerosol into the plethysmograph chambers for 5 minutes. […] The average enhanced pause (lung resistance) was determined. In order to determine the baseline, saline aerosol (without methacholine) was also separately administered to the mice.
# [8] = Balb/c, mouse, plasma, inhaled, inhalation of 0.072 mg/ml, read-out: Plasma concentration ± std dev
# [9] = Balb/c, mouse, plasma, inhaled, inhalation of 0.144 mg/ml, read-out: Plasma concentration ± std dev
# [10] = Balb/c, mouse, plasma, inhaled, inhalation of 1.44 mg/ml, read-out: Plasma concentration ± std dev
# T3 sequence (P20309 whole entry): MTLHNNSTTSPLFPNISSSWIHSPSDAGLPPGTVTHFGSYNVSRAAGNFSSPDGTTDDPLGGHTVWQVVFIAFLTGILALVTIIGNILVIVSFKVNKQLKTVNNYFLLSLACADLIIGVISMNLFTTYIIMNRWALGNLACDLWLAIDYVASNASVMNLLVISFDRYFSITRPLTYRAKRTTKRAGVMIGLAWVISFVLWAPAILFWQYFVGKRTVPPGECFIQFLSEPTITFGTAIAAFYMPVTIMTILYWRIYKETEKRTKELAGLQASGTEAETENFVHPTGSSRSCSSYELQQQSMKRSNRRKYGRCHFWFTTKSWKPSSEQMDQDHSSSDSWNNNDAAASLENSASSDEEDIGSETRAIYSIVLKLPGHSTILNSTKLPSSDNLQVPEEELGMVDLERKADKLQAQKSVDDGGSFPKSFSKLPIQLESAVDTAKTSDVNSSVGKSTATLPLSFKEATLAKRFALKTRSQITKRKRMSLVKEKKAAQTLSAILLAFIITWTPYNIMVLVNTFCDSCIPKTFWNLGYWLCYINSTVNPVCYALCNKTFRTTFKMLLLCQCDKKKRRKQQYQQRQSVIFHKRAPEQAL
compound,measurement,setting,value
Cc1ccc(O)c([C@H](CC[N+](C)(C(C)C)C(C)C)c2ccccc2)c1.[I-] [Example 2],Ki,[1],0.33 nM
same,Ki,[2],0.45 nM
same,Ki,[3],0.2 nM
same,Ki,[4],0.39 nM
same,Ki,[5],0.25 nM
same,concentration at 2.5 min,[6]; [8],0.136 ± 0.038 ng/mL
same,concentration at 10 min,[6]; [8],0.09 ± 0.001 ng/mL
same,concentration at 30 min,[6]; [8],0.081 ± 0.008 ng/mL
same,concentration at 2 h,[6]; [8],0.041 ± 0.006 ng/mL
same,concentration at 4 h,[6]; [8],0.014 ± 0.001 ng/mL
same,concentration at 2.5 min,[6]; [9],0.264 ± 0.021 ng/mL
same,concentration at 10 min,[6]; [9],0.162 ± 0.011 ng/mL
same,concentration at 30 min,[6]; [9],0.112 ± 0.01 ng/mL
same,concentration at 2 h,[6]; [9],0.055 ± 0.007 ng/mL
same,concentration at 4 h,[6]; [9],0.04 ± 0.003 ng/mL
same,concentration at 8 h,[6]; [9],0.012 ± 0.001 ng/mL
same,concentration at 2.5 min,[6]; [10],2.68 ± 0.389 ng/mL
same,concentration at 10 min,[6]; [10],1.4 ± 0.163 ng/mL
same,concentration at 30 min,[6]; [10],1.12 ± 0.042 ng/mL
same,concentration at 2 h,[6]; [10],0.245 ± 0.003 ng/mL
same,concentration at 4 h,[6]; [10],0.157 ± 0.002 ng/mL
same,concentration at 8 h,[6]; [10],0.08 ± 0.002 ng/mL
same,concentration at 12 h,"[6]; Balb/c, mouse, plasma, inhaled, inhalation of 1.44 mg/ml, 12 h, read-out: Plasma concentration ± std dev",0.042 ± 0.002 ng/mL
same,systemic (plasma) exposure,[6]; after aerosol inhalation of 0.072-1.44 mg/ml,very low
same,"prevention of methacholine-induced bronchoconstriction, time following administration","[7]; inhalation of aerosol from 0.072 mg/ml solution, FIG. 3",8 h
same,"prevention of methacholine-induced bronchoconstriction, time following administration","[7]; inhalation of aerosol from 0.144 mg/ml solution, FIG. 2",24 h
same,"complete block of methacholine-induced bronchoconstriction, time following administration","[7]; inhalation of aerosol from 1.44 mg/ml solution, FIG. 1",36 h
